{"source": "patent US6326401A", "about": "“Formulation for the oromucosal, in particular pernasal, route” (Immunotech, priority 1998, dated 2001)", "key": {"[1]": {"assay": "Bioavailability test: serum IS 159 after nasal administration of the solution and control solution of example 1 (Example 4)", "format": "in vivo, man", "conditions": "for AUC at 4 h / Tmax: human, serum; for AUC at 4 h: observation period 4 hours; for Tmax: read-out: apparent Tmax (converted)"}, "[2]": {"assay": "Reproducibility of bioavailability of the aqueous nasal solution plus Labrasol (Example 5)", "format": "in vivo, human subjects", "conditions": "100 μl (4 mg), with Labrasol, 8 subjects"}, "[3]": {"assay": "Dose/effect and reproducibility of bioavailability, nasal 4 mg and 7 mg (Example 6)", "format": "in vivo, human subjects", "conditions": "with Labrasol", "description": "The black squares represent the dose of 4 mg and the white squares represent the dose of 7 mg."}, "[4]": {"assay": "Compared bioavailability of sublingual formulations without and with Labrasol (Example 7)", "format": "in vivo, healthy volunteer subjects", "conditions": "10 mg, sublingual tablet; for AUC at 6 h / Tmax: human, serum; for AUC at 6 h: observation period 6 hours; for Tmax: read-out: apparent Tmax (converted)", "description": "The serum concentrations of IS 159 as a function of time were measured on healthy volunteer subjects. These subjects received an identical amount of active substance IS 159 (10 mg) in the form of tablets in the absence or presence of Labrasol® (2%) by sublingual administration."}, "[5]": {"assay": "Comparison between aqueous nasal solution and sublingual formulation (Example 8)", "format": "in vivo, healthy volunteer subjects", "conditions": "human, serum, 10 mg; for AUC(0-inf): read-out: AUC from time 0 to infinity", "description": "(§1) The serum concentrations of IS 159 as a function of time were measured on healthy volunteer subjects."}, "[6]": {"assay": "Compared bioavailability of aqueous nasal solution/aqueous subcutaneous solution (Example 9)", "format": "in vivo, healthy volunteer subjects", "conditions": "4 mg; for Tmax / half-life: human, serum; for half-life: read-out: Terminal half-life (converted)", "description": "as §1"}, "[7]": {"conditions": "control solution without Labrasol"}}, "note": "Read-outs that look alike come from different tables or passages of the source."}
{"smiles": "NCCc1c[nH]c2ccc(OCC(=O)NC(Cc3ccc(O)cc3)C(=O)NCC(N)=O)cc12", "note": "(centres unmarked) [IS 159, tryptamine 5-O-carboxymethyl-tyrosyl-glycinamide]", "values": [{"measurement": "AUC at 4 h", "setting": "[1]; [7]", "result": 12, "unit": "ng·h/mL"}, {"measurement": "Tmax", "setting": "[1]; [7]", "result": 30, "unit": "min"}, {"measurement": "AUC at 4 h", "setting": "[1]; with Labrasol", "result": 85, "unit": "ng·h/mL"}, {"measurement": "Tmax", "setting": "[1]; with Labrasol", "result": "10 to 15", "unit": "min"}, {"measurement": "absorption (Cmax)", "setting": "[1]; with Labrasol vs control solution", "result": "increases the absorption (Cmax)"}, {"measurement": "interindividual and intraindividual reproducibilities of the pharmacokinetic parameters", "setting": "[2]", "result": "good"}, {"measurement": "intra-individual and interindividual reproducibility of the pharmacokinetic parameters", "setting": "[3]", "result": "good"}, {"measurement": "ratios of the AUCs and the maximum concentrations", "setting": "[3]", "result": "constant and high"}, {"measurement": "AUC at 6 h", "setting": "[4]; control (2% lactose)", "result": 0.42, "unit": "ng·h/mL"}, {"measurement": "Tmax", "setting": "[4]; control without Labrasol", "result": 45, "unit": "min"}, {"measurement": "AUC at 6 h", "setting": "[4]; with 2% Labrasol", "result": 9.72, "unit": "ng·h/mL"}, {"measurement": "Tmax", "setting": "[4]; with 2% Labrasol", "result": 35, "unit": "min"}, {"measurement": "absorption (Cmax)", "setting": "[4]; with 2% Labrasol vs control", "result": "increases the absorption (Cmax)"}, {"measurement": "AUC(0-inf)", "setting": "[5]; nasal solution with Labrasol", "result": 166, "unit": "ng·h/mL"}, {"measurement": "AUC(0-inf)", "setting": "[5]; sublingual tablet with 2% Labrasol", "result": 12, "unit": "ng·h/mL"}, {"measurement": "half-life", "setting": "[5]; nasal and sublingual with Labrasol, read-out: terminal half-life (converted)", "result": "~150", "unit": "min"}, {"measurement": "Tmax", "setting": "[6]; sc, mean s.c.", "result": 30, "unit": "min"}, {"measurement": "half-life", "setting": "[6]; sc, mean s.c.", "result": 150, "unit": "min"}, {"measurement": "Tmax", "setting": "[6]; mean nasal, with Labrasol", "result": 15, "unit": "min"}, {"measurement": "half-life", "setting": "[6]; mean nasal, with Labrasol", "result": 150, "unit": "min"}, {"measurement": "AUC/dose", "setting": "[6]; mean nasal, with Labrasol", "result": "14 (h.ng/ml)(mg dose IS 159)"}, {"measurement": "Cmax/dose", "setting": "[6]; mean nasal, with Labrasol", "result": 11, "unit": "ng/mL"}, {"measurement": "AUC/dose", "setting": "[6]; mean s.c.", "result": "36 (h.ng/ml)(mg dose IS 159)"}, {"measurement": "Cmax/dose", "setting": "[6]; mean s.c.", "result": 20, "unit": "ng/mL"}, {"measurement": "AUC/dose, ratio Nasal/s.c.", "setting": "[6]; nasal (with Labrasol) / s.c.", "result": 39, "unit": "%"}, {"measurement": "Cmax/dose, ratio Nasal/s.c.", "setting": "[6]; nasal (with Labrasol) / s.c.", "result": 55, "unit": "%"}, {"measurement": "Tmax, Nasal/s.c.", "setting": "[6]; nasal (with Labrasol) vs s.c.", "result": "reduced"}, {"measurement": "bioavailability", "setting": "[6]; nasal solution with Labrasol, compared with subcutaneous", "result": "significant and faster than by the subcutaneous route"}, {"measurement": "terminal half-life, change", "setting": "[6]; nasal vs subcutaneous", "result": "not changed significantly"}]}
